The values that follow come from patent publication US11787846B2, “EphA2 T-cell epitope agonists and uses therefore” (UNIVERSITY OF PITTSBURGH—OF THE COMMONWEALTH SYSTEM OF …, priority 2003, dated 2023).

Experiment [1] deals with peripheral blood CD4+ T cells. In words: IFN-γ ELISPOT, CD4+ T cell response to peptide-pulsed T2.DR4 cells. It counts as cell-based, human. The following applies: for CD4+ T Cell Response to Peptide on T2.DR4: control peptide subtracted, 0 = <1/100,000.
In experiment [2] the test system is peripheral blood CD4+ T cells. In words: IL-5 ELISPOT, CD4+ T cell response to peptide-pulsed T2.DR4 cells. It counts as cell-based, human. The following applies: one HLA-DR4+ Stage I RCC patient, pre- vs. post-surgery.
Experiment [3] concerns the target T1, EphA2 (Homo sapiens, UniProt P29317). In words: Western blot of EphA2 protein degradation in tumor cells. It counts as cell-based. On the set-up: PC3 (left panel) and SLR24 (right panel) cells were treated for 6 hours with either B61.Ig; endogenous in cells; host or cells: PC3 prostate carcinoma cells (A9, A10); SLR24 renal cell carcinoma cells (A10). The following applies: PC3 and SLR24 cells; 6 hours; B61.Ig 30 μg/ml or mAb208 8 μg/ml. (In general: Immunoblotting shows a protein as a band on a membrane.)

Experiment [4] has as its target T1, EphA2. The experiment can be described thus: EphA2 immunoprecipitation and anti-phosphotyrosine Western blot. It counts as cell-based. More on the design: endogenous in cells; host or cells: PC3 prostate carcinoma cells (A9, A10); SLR24 renal cell carcinoma cells (A10). The following applies: PC3 cells; B61.Ig 30 μg/ml or mAb208 8 μg/ml. How it is done: (§1) Western Blot Analyses. Tumor cells were grown to 80-90% confluency, serum starved overnight, then treated with agonists where indicated. In addition, resected SLR24 lesions were obtained pre- and 24 h post-intratumoral injection with B61-Ig, as outlined below. Tumor samples were analyzed for EphA2 expression via Western blots using the rabbit anti-human EphA2 polyclonal antibody (clone: C-20), Santa Cruz Biotechnology, Inc., Santa Cruz, Calif.). In some experiments, samples were also analyzed for Axl (clone C-20, Santa Cruz Biotechnology, Santa Cruz, Calif.) protein content. Single tumor cell suspensions isolated from confluent tissue culture flasks or from the enzymatic digestion of resected lesions were lysed using 500·mu·l lysis buffer (1% Triton-X, […], 10 mM Tris pH 7.4, 1 mM EDTA, 0.2 mM SOV, 0.5% NP-40) in PBS containing protease inhibitors (Complete, Roche Diagnostic, Mannheim, Germany) for 30 min at 4° C. After centrifugation at 13,500×g for 20 minutes, the supernatant was mixed 1:1 with SDS-PAGE running buffer and proteins separated on 7.5% PAGE gels, prior to electro-blotting onto nitrocellulose membranes (Millipore, Bedford, Mass.). […]

In experiment [5] the target is T1, EphA2. In words: Western blot of EphA2 in resected SLR24 lesions after B61-Ig. More on the design: resected SLR24 lesions were obtained pre- and 24 h post-intratumoral injection with B61-Ig; from tissue; host or cells: SLR24 human RCC xenograft lesions resected from C.B-17 scid/scid mice. The following applies: SLR24 tumors resected 24 hours after B61-Ig. It is filed as in vivo, C.B-17 scid/scid mice. On the procedure: as §1, with “C.” for “C. After centrifugation at 13,500×g for 20 minutes, the supernatant was mixed 1:1 with SDS-PAGE running buffer and proteins separated on 7.5% PAGE gels, prior to electro-blotting onto nitrocellulose membranes (Millipore, Bedford, Mass.).”
Hu-SCID Tumor Model. […] Animals were evaluated every 3-4 days for tumor size, with tumor-free status noted on day 40 post-tumor inoculation. […]
EphA2 Agonist Treatment Enhances the efficacy of adoptively transferred anti-EphA2 CD8^+ T Cells in a Hu-SCID Tumor Model. […] Animals were evaluated every 3-4 days for tumor size, with tumor-free status noted on day 40 post-tumor inoculation. […]

Another experiment concerns SLR24 tumors. The experiment can be described thus: Hu-SCID tumor model. It counts as in vivo, C.B-17 scid/scid mice.
Another experiment relates to SLR24 RCC cells. In words: IFN-γ ELISPOT, recognition of SLR24 by anti-EphA2 CTL clone CL.142. It is filed as cell-based, human. The following applies: B61.Ig 30 μg/ml overnight, relative to untreated cells.
The mark [6] stands for this setting: single therapy: B61-Ig 50 μg intratumoral d18 or 5×10^6 E883 T cells i.v. d19.

As for “DLMQNIMNDMPIYMYS (listed as Homo sapiens) [compound 53]”, the “Total Responses (CD4+ T cell, responding donors/donors evaluated)” value in experiment [1] (HLA-DR4+ normal donors) is listed as 3/7. In addition, the “CD4+ T Cell Response to Peptide on T2.DR4” value is on record as 43 /100,000 T cells in experiment [1] (Normal Donor DR4-1); 38 /100,000 T cells in experiment [1] (Normal Donor DR4-2); 4 /100,000 T cells in experiment [1] (Normal Donor DR4-3); 0 /100,000 T cells in experiment [1] (Normal Donor DR4-4); 0 /100,000 T cells in experiment [1] (Normal Donor DR4-5); 0 /100,000 T cells in experiment [1] (Normal Donor DR4-6). The “CD4+ T Cell Response to Peptide on T2.DR4” value in experiment [1] (Normal Donor DR4-7) was 54 /100,000 T cells. Besides, the “Change in Th1-type (IFN-γ) CD4+ T cell response post-surgery” value in experiment [1] (one HLA-DR4+ Stage I RCC patient, pre- vs. post-surgery) was “statistically-significant increase”. Moreover, the “Change in Th2-type (IL-5) CD4+ T cell response post-surgery” value in experiment [2] is on record as “decrease”.

B1: B61.Ig: chimeric protein consisting of the ligand binding domain of ephrin-A1 fused with the Fc portion of a mouse IgG antibody (protein)
chain: DRHTVFWNSSNPKFRNEDYTIHVQLNDYVDIICPHYEDHSVADAAMEQYILYLVEHEEYQLCQPQSKDQVRWQCNRPSAKHGPEKLSEKFQRFTPFTLGKEFKEGHSYYYISKPIHQHEDRCLRLKVTVSGKITHSPQAHDNPQEKRLAADDPEVRVLHSIGHS
modifications: left off: a dimerising Fc or GST
As for B1, in the experiment with EphA2 [3], the EphA2 protein degradation entry is “Degradation”. Besides, in the experiment with EphA2 [4], the “EphA2 phosphorylation (phosphotyrosine content)” value is reported as “Induce EphA2 Phosphorylation”. Also, the “EphA2 processing/degradation in situ” value with EphA2 [5] is “promoted EphA2 processing in situ”. The “Benefit vs. B61-Ig treatment alone” value in the experiment on SLR24 tumors (B61-Ig combined with CD8+ T cells specific for influenza matrix58-66, data not shown) is listed as “no enhanced benefit”. The “Resolution of disease (treated mice)” value with SLR24 tumors (combination: B61-Ig 50 μg intratumoral d18 plus 5×10^6 E883 anti-EphA2 CD8+ T cells i.v. d19, tumor-free status day 40) is 5/5. In the experiment on SLR24 tumors (setting [6]), the Animals cured entry is recorded as “no animals were cured” and the SLR24 tumor growth entry is recorded as “delayed growth”. Also, in the experiment with SLR24 RCC cells, the “CL.142 recognition of SLR24 (IFN-γ ELISPOT)” value is given as “significantly enhanced”.
